From US20220265591A1, “USE OF AN OSMOLYTE IN MANUFACTURE OF A MEDICAMENT FOR TREATMENT OF OCULAR DISORDERS” (SINGAPORE HEALTH SERVICES PTELTD, priority 2019, published 2022)

How the values were obtained:
[1] = target: T1, preformed amyloid fibrils from TGFBIp611-633 G623R peptide (Homo sapiens, UniProt Q15582, G623R); assay: ThT fluorescence microscopy, disaggregation of preformed amyloid fibrils; settings: 200 mM and 320 mM
T1 construct: The 23-amino acid long peptide (TGFBIp 611-633 c.623 G>R) from the 4th FAS1 domain; purchased Synpeptide Co Ltd, Shanghai, China; host or cells: synthetic peptide
T1 sequence (Q15582 611-633 G623R limits assumed): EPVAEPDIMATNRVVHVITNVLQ
Experimental: The ability of osmolytes to disaggregate the preformed amyloid fibrils were investigated further by fluorescence microscopy after ThT staining. The peptide samples collected at the various time points above were incubated at a ratio of 1:1 ratio of thpeptide solution to ThT in the dark for 30 minutes to obtain solutions for fluorescence microscopy. 25 μl of the solutions were taken on to slides with coverslips and visualized under a fluorescent microscope. Three representative images from each time point under a given condition was used for the quantitation of fluorescence. Image J software was used to quantify the signal from the images and the values for each time point per osmolyte treatment were normalised to the untreated sample at that particular time point.
The inhibition effect of taurine on the preformed amyloid fibrils was investigated further by fluorescence microscopy after ThT staining. The samples collected at the various time points above were incubated ThT at a ratio of 1:1 ratio in the dark for 30 minutes to obtain solutions for fluorescence microscopy. 25 μl of the solutions were taken on to slides with coverslips and visualized under a fluorescent microscope.

[2] = target: T2, TGFBIp611-633 N622K peptide (Homo sapiens, UniProt Q15582, N622K); assay: Circular Dichroism assay, inhibition of amyloid fibrillation; format: biochemical; settings: TGFBIp-N622K, final time point, read-out: % Inhibition at final time point, CD
T2 construct: The TGFBIp^611-633 N622K peptides were treated with 200 mM and 320 mM of taurine; purchased Synpeptide Co Ltd, Shanghai, China; host or cells: synthetic peptide
T2 sequence (Q15582 611-633 N622K limits assumed): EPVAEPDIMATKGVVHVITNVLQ
Experimental: Circular Dichroism (CD) spectroscopy was performed to study the changes in the secondary structure of the peptides. The TGFBIp^611-633 G623R peptides were treated with 200 mM and 320 mM of taurine in PBS buffer at pH 7.0 for 24 h, 48 h and 72 h, respectively. While the TGFBIp^611-633 N622K peptides were treated with 200 mM and 320 mM of taurine in PBS buffer at pH 7.0 for 72 h, 96 h, 120 h, 144 h, 192 h, 216 h, and 240 h, respectively. The treatment solutions were studied by far UV-CD assay.

NCCS(=O)(=O)O [Taurine, taurine]
fluorescent intensity under microscope, preformed fibrils [1]: reduction in fluorescent intensity
inhibition at 200000 µM ([2]; 200 mM): 39%
inhibition at 320000 µM ([2]; 320 mM): 66%
